According to ChEMBL document CHEMBL1201862, “PubChem BioAssay data set” (2004):
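The compound was tested at five concentrations on cells cultured in 96-well plates, with a 48-hour exposure period. The concentration for 50% growth inhibition is given as GI50.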 The source made the active and inactive calls. Rule as the data show it: active = GI50 up to about 1.1 µM and inactive = higher.

How the values were obtained:
Assay in all cases: growth of human tumour cells (NCI), 48 h
CCRF-CEM = tested on: CCRF-CEM
OVCAR-4 = tested on: OVCAR-4
OVCAR-3 = tested on: OVCAR-3
LOX IMVI = tested on: LOX IMVI
MDA-N = tested on: MDA-N
SNB-19 = tested on: SNB-19
SF-539 = tested on: SF-539
UO-31 = tested on: UO-31
MDA-MB-231 = tested on: MDA-MB-231
UACC-62 = tested on: UACC-62
RXF 393 = tested on: RXF 393
MCF7 = tested on: MCF7
CAKI-1 = tested on: CAKI-1
SK-MEL-5 = tested on: SK-MEL-5
U-251 = tested on: U-251
ACHN = tested on: ACHN
KM12 = tested on: KM12
SK-MEL-28 = tested on: SK-MEL-28
SF-268 = tested on: SF-268
Hs-578T = tested on: Hs-578T
TK-10 = tested on: TK-10
HT-29 = tested on: HT-29
RPMI-8226 = tested on: RPMI-8226
HCT-15 = tested on: HCT-15
K562 = tested on: K562
HCT-116 = tested on: HCT-116
NCI-H23 = tested on: NCI-H23
SF-295 = tested on: SF-295
M14 = tested on: M14
786-0 = tested on: 786-0
SK-MEL-2 = tested on: SK-MEL-2
MDA-MB-435 = tested on: MDA-MB-435
HL-60 = tested on: HL-60
NCI/ADR-RES = tested on: NCI/ADR-RES
SW-620 = tested on: SW-620
HOP-92 = tested on: HOP-92
COLO 205 = tested on: COLO 205
OVCAR-5 = tested on: OVCAR-5
DU-145 = tested on: DU-145
MOLT-4 = tested on: MOLT-4
BT-549 = tested on: BT-549
SNB-75 = tested on: SNB-75
PC-3 = tested on: PC-3
SK-OV-3 = tested on: SK-OV-3
A549 = tested on: A549
NCI-H522 = tested on: NCI-H522
OVCAR-8 = tested on: OVCAR-8
IGROV-1 = tested on: IGROV-1
UACC-257 = tested on: UACC-257
EKVX = tested on: EKVX
HOP-62 = tested on: HOP-62
Malme-3M = tested on: Malme-3M
SR = tested on: SR
HCC 2998 = tested on: HCC 2998
NCI-H460 = tested on: NCI-H460
NCI-H226 = tested on: NCI-H226
T47D = tested on: T47D
SN12C = tested on: SN12C

For `CCOC(=O)Cn1c(=O)c2cc(C)cc3c(Cl)nc4c(OC)c(OC)cc1c4c32`, the GI50 (CCRF-CEM) was > 100 µM (inactive), the GI50 (OVCAR-4) was > 100 µM (inactive) and the GI50 (OVCAR-3) was > 100 µM (inactive). The GI50 (LOX IMVI) was > 100 µM (inactive), the GI50 (MDA-N) was > 100 µM (inactive) and the GI50 (SNB-19) was > 100 µM (inactive). For the same compound, the GI50 (SF-539) was > 100 µM (inactive), the GI50 (UO-31) was > 100 µM (inactive) and the GI50 (MDA-MB-231) was > 100 µM (inactive). The GI50 (UACC-62) was > 100 µM (inactive), the GI50 (RXF 393) was 51.1 µM (inactive) and the GI50 (MCF7) was 72.8 µM (inactive). For the same compound, the GI50 (CAKI-1) was > 100 µM (inactive), the GI50 (SK-MEL-5) was > 100 µM (inactive) and the GI50 (U-251) was > 100 µM (inactive). The GI50 (ACHN) was > 100 µM (inactive), the GI50 (KM12) was > 100 µM (inactive) and the GI50 (SK-MEL-28) was > 100 µM (inactive). For the same compound, the GI50 (SF-268) was 35.6 µM (inactive), the GI50 (Hs-578T) was 31.8 µM (inactive) and the GI50 (TK-10) was > 100 µM (inactive). The GI50 (HT-29) was > 100 µM (inactive), the GI50 (RPMI-8226) was 36.5 µM (inactive) and the GI50 (HCT-15) was over 100 µM. The GI50 (K562) was > 100 µM (inactive), the GI50 (HCT-116) was > 100 µM (inactive) and the GI50 (NCI-H23) was > 100 µM (inactive). For the same compound, the GI50 (SF-295) was > 100 µM (inactive), the GI50 (M14) was > 100 µM (inactive) and the GI50 (786-0) was 29.7 µM (inactive). The GI50 (SK-MEL-2) was > 100 µM (inactive), the GI50 (MDA-MB-435) was > 100 µM (inactive) and the GI50 (HL-60) was > 100 µM (inactive). The GI50 (NCI/ADR-RES) was > 100 µM (inactive), the GI50 (SW-620) was > 100 µM (inactive) and the GI50 (HOP-92) was 41.5 µM (inactive). For the same compound, the GI50 (COLO 205) was > 100 µM (inactive), the GI50 (OVCAR-5) was > 100 µM (inactive) and the GI50 (DU-145) was > 100 µM (inactive). The GI50 (MOLT-4) was > 100 µM (inactive), the GI50 (BT-549) was 56.6 µM (inactive) and the GI50 (SNB-75) was 30.8 µM (inactive). The GI50 (PC-3) was > 100 µM (inactive), the GI50 (SK-OV-3) was > 100 µM (inactive) and the GI50 (A549) was > 100 µM (inactive). For the same compound, the GI50 (NCI-H522) was > 100 µM (inactive), the GI50 (OVCAR-8) was > 100 µM (inactive) and the GI50 (IGROV-1) was 71.8 µM (inactive). For the same compound, the GI50 (UACC-257) was > 100 µM (inactive), the GI50 (EKVX) was > 100 µM (inactive) and the GI50 (HOP-62) was > 100 µM (inactive). The GI50 (Malme-3M) was 44.2 µM (inactive), the GI50 (SR) was 50 µM (inactive) and the GI50 (HCC 2998) was > 100 µM (inactive). For the same compound, the GI50 (NCI-H460) was > 100 µM (inactive) and the GI50 (NCI-H226) was > 100 µM (inactive).
`Cc1c2c3cc(O)ccc3nc-2n(C)c2ccccc12` was tested, and the GI50 (CCRF-CEM) was 0.743 µM (active), the GI50 (OVCAR-3) was 2.37 µM (inactive) and the GI50 (T47D) was 2.68 µM (inactive). For the same compound, the GI50 (MDA-N) was 2.07 µM (inactive), the GI50 (SNB-19) was 1.83 µM (inactive) and the GI50 (SF-539) was 1.7 µM (inactive). The GI50 (UO-31) was 0.857 µM (active), the GI50 (UACC-62) was 1.39 µM (inactive) and the GI50 (RXF 393) was 1.09 µM (active). For the same compound, the GI50 (MCF7) was 2.21 µM (inactive), the GI50 (SK-MEL-5) was 1.09 µM (active) and the GI50 (SN12C) was 0.875 µM (active). For the same compound, the GI50 (U-251) was 0.838 µM (active), the GI50 (ACHN) was 0.479 µM (active) and the GI50 (KM12) was 1.69 µM (inactive). The GI50 (SK-MEL-28) was 2.06 µM (inactive), the GI50 (SF-268) was 1.62 µM (inactive) and the GI50 (Hs-578T) was 2.9 µM (inactive). The GI50 (TK-10) was 2.98 µM (inactive), the GI50 (HT-29) was 1.1 µM (active) and the GI50 (RPMI-8226) was 2.34 µM (inactive). The GI50 (HCT-15) was 1.81 µM, the GI50 (K562) was 0.818 µM (active) and the GI50 (HCT-116) was 0.459 µM (active). The GI50 (NCI-H23) was 2.24 µM (inactive), the GI50 (SF-295) was 1.59 µM (inactive) and the GI50 (M14) was 1.58 µM (inactive). For the same compound, the GI50 (786-0) was 0.53 µM (active), the GI50 (MDA-MB-435) was 1.36 µM (inactive) and the GI50 (HL-60) was 2.34 µM (inactive). The GI50 (NCI/ADR-RES) was 0.957 µM (active), the GI50 (SW-620) was 0.497 µM (active) and the GI50 (HOP-92) was 1.93 µM (inactive). The GI50 (OVCAR-5) was 3.3 µM (inactive), the GI50 (DU-145) was 3.08 µM (inactive) and the GI50 (MOLT-4) was 0.399 µM (active). The GI50 (BT-549) was 1.92 µM (inactive), the GI50 (SNB-75) was 2.45 µM (inactive) and the GI50 (PC-3) was 1.75 µM (inactive). The GI50 (SK-OV-3) was 1.46 µM (inactive), the GI50 (A549) was 0.938 µM (active) and the GI50 (OVCAR-8) was 0.755 µM (active). For the same compound, the GI50 (IGROV-1) was 2.17 µM (inactive), the GI50 (UACC-257) was 2.69 µM (inactive) and the GI50 (EKVX) was 2.58 µM (inactive). For the same compound, the GI50 (HOP-62) was 1.5 µM (inactive), the GI50 (Malme-3M) was 1.48 µM (inactive) and the GI50 (SR) was 0.782 µM (active). The GI50 (HCC 2998) was 2.77 µM (inactive), the GI50 (NCI-H460) was 0.434 µM (active) and the GI50 (NCI-H226) was 2.86 µM (inactive).
In the case of `CCOc1ccc2nc(NC(=O)C(=O)C3C(=O)C(CC4C(=O)c5ccccc5C4=O)C(=O)CC3(C)C)sc2c1` (stereo not given), the GI50 (CCRF-CEM) is reported as 30.8 µM (inactive), the GI50 (OVCAR-4) is reported as 56.1 µM (inactive) and the GI50 (OVCAR-3) is reported as 66.7 µM (inactive). The GI50 (LOX IMVI) was > 100 µM (inactive), the GI50 (MDA-N) was > 100 µM (inactive) and the GI50 (SNB-19) was > 100 µM (inactive). The GI50 (SF-539) was > 100 µM (inactive), the GI50 (UO-31) was 18.9 µM (inactive) and the GI50 (MDA-MB-231) was 24 µM (inactive). The GI50 (UACC-62) was 90.4 µM (inactive), the GI50 (RXF 393) was > 100 µM (inactive) and the GI50 (MCF7) was > 100 µM (inactive). For the same compound, the GI50 (CAKI-1) was 80 µM (inactive), the GI50 (SK-MEL-5) was 96.4 µM (inactive) and the GI50 (SN12C) was > 100 µM (inactive). For the same compound, the GI50 (U-251) was > 100 µM (inactive), the GI50 (ACHN) was > 100 µM (inactive) and the GI50 (KM12) was > 100 µM (inactive). For the same compound, the GI50 (SK-MEL-28) was > 100 µM (inactive), the GI50 (SF-268) was > 100 µM (inactive) and the GI50 (Hs-578T) was > 100 µM (inactive). For the same compound, the GI50 (TK-10) was > 100 µM (inactive), the GI50 (HT-29) was > 100 µM (inactive) and the GI50 (HCT-15) was over 100 µM. The GI50 (HCT-116) was 86.7 µM (inactive), the GI50 (NCI-H23) was 95.1 µM (inactive) and the GI50 (SF-295) was > 100 µM (inactive). The GI50 (M14) was > 100 µM (inactive), the GI50 (786-0) was > 100 µM (inactive) and the GI50 (SK-MEL-2) was > 100 µM (inactive). The GI50 (MDA-MB-435) was > 100 µM (inactive), the GI50 (HL-60) was 20.3 µM (inactive) and the GI50 (NCI/ADR-RES) was > 100 µM (inactive). For the same compound, the GI50 (SW-620) was > 100 µM (inactive), the GI50 (HOP-92) was 34.6 µM (inactive) and the GI50 (COLO 205) was > 100 µM (inactive). The GI50 (OVCAR-5) was > 100 µM (inactive), the GI50 (DU-145) was > 100 µM (inactive) and the GI50 (MOLT-4) was 13.5 µM (inactive). For the same compound, the GI50 (BT-549) was > 100 µM (inactive), the GI50 (SNB-75) was > 100 µM (inactive) and the GI50 (PC-3) was 65.8 µM (inactive). The GI50 (SK-OV-3) was > 100 µM (inactive), the GI50 (A549) was 87.5 µM (inactive) and the GI50 (NCI-H522) was > 100 µM (inactive). The GI50 (OVCAR-8) was > 100 µM (inactive), the GI50 (IGROV-1) was 44 µM (inactive) and the GI50 (UACC-257) was > 100 µM (inactive). The GI50 (EKVX) was 32.9 µM (inactive), the GI50 (HOP-62) was > 100 µM (inactive) and the GI50 (HCC 2998) was > 100 µM (inactive). The GI50 (NCI-H460) was > 100 µM (inactive) and the GI50 (NCI-H226) was > 100 µM (inactive).
